Laboratory results: patent publication US20120196899A1, “METHODS AND PRODUCTS FOR TREATING INFLAMMATION” (Rock Creek Pharmaceuticals, Inc., priority 2010, published 2012)
“And” between values parts separate entries of the source, which are not always exact repeats. Identical values can stand only once.

Columns and labels:
[1] = system: TNFα-induced NFκB activity; experiment: NFκB luciferase assay (inhibition of TNFα-induced NFκB activity) in HEK293 reporter cells; assay type: cell-based, Human; details: HEK293 reporter cells challenged with TNFα for three hours
Method: The smokeless tobacco used in these experiments was plain long-leaf Copenhagen tobacco purchased from a local vendor. Crude extract was extracted with methanol and water and clarified by centrifugation and filtration. The alkaloid extract was prepared from sodium hydroxide and methanol extraction, organic phase separation and purification. All treatment samples were prepared as a function of weight (μg/ml), and all samples were diluted in DMSO.
Human […] kidney cells (HEK293) transfected with an NFκB luciferase reporter were challenged with TNFα for three hours, then samples were applied to the challenged cells.

[2] = Physical signs after single i.v. dose (Example 3); assay type: in vivo, Sprague-Dawley rats; details: anatabine 0.1, 0.75, 1.0 mg/kg single i.v., rats
Method: Four aliquots of each dose level formulation were collected and stored at −80° C. The test compound, corresponding dose level, number of animals, and sample collection times for Phase I of the study are shown in Table 3. The test compound, corresponding dose level, number of animals, and sample collection times for Phase II of the study are shown in Table 4. The physical signs of each animal were monitored following administration of the test compound.

[3] = Body weights, weight gain and food consumption over 14 days after single i.v. dose; assay type: in vivo, Sprague-Dawley rats; details: for day 1 B.W. / day 2 B.W. / day 3 B.W. / day 4 B.W. / day 5 B.W. / day 6 B.W. / day 7 B.W. / day 8 B.W. / day 9 B.W. / day 11 B.W. / day 12 B.W. / day 13 B.W. / day 14 B.W. / day 10 B.W.: individual rats
Method: Body weight and food consumption was measured daily for 14 days. On day 15, urine was collected on all surviving animals. The animals were euthanized and bled via cardiac puncture, and blood was collected for analysis. Tissues were collected, weighed, evaluated for gross abnormalities, and stored in 10% neutral-buffered formalin.
All animals were observed daily.

[4] = Coagulation parameters (aPTT, PT), day 15; assay type: in vivo, Sprague-Dawley rats
From the text: On day 15, urine was collected on all surviving animals for urinalysis. The animals were euthanized and bled via cardiac puncture. Blood was collected for hematology, clinical chemistry, and coagulation analysis. Tissues were collected, weighed, and stored in 10% neutral-buffered formalin for possible future analysis.
Individual values for the coagulation parameters activated partial thromboplastin (aPTT) and prothrombin times (PT) for each animal are listed in Table 34 (normal ranges, Table 30). These are summarized in terms of descriptive statistics in Table 25.

nAChR α7 = target: T1, nAChR α7 (Homo sapiens, UniProt P36544); experiment: nAChR α7 channel agonist assay (FLIPR, with PNU-120596); assay type: cell-based; details: with 10 μM PNU-120596; maximal stimulation not achieved
T1 construct: host or cells: CHO cells
Method: Therefore, the assay of agonist activity for either Ach or for the test articles was conducted in the presence of the positive allosteric modulator.

nAChR α3/β4 [5] = target: T2, nAChR α3/β4 (Homo sapiens, UniProt P30926+P32297); details: in presence of 10 μM Ach
nAChR α3/β4 [6] = target: T2, nAChR α3/β4; experiment: nAChR α3/β4 channel agonist assay (FLIPR, Fluo-8 calcium); details: 0.3-1000 μM; maximal stimulation not achieved
Method: The following three (3) channels were evaluated: • 1. nAChR α3/β4 (encoded by the human CHRNA3 and CHRNB4 gene and stably expressed in CHO cells); • 2. nAChR α4/β2 (CHRNA4 and CHRNB2 gene and transiently expressed in HEK293 cells); and • 3. nAChR α7 (encoded by the human nicotinic α7 gene coexpressed in CHO cells with the chaperone RIC-3 encoded by the human RIC3 gene).
The ability of each test article to act as an agonist, a positive allosteric modulator or antagonist of three nAChR receptor channels was evaluated in the presence of 0.1 atropine. Both test articles were evaluated for responses on each nAChR channel at eight (8) concentrations: 0.3, 1, 3, 10, 30, 100, 300, and 1000 μM (n=4 for each concentration).
HEK293 or CHO cells were transiently or stably transfected with the appropriate human ion channel cDNAs. Stable transfectants were selected by coexpression with the antibiotic-resistance gene(s) incorporated into the expression plasmid(s). Selection pressure was maintained by including selection antibiotics in the culture medium. HEK293 cells were cultured in Dulbecco's Modified Eagle Medium/Nutrient Mixture F-12 (D-MEM/F-12) supplemented with 10% fetal bovine serum, 100 U/mL penicillin G sodium, 100 g/mL streptomycin sulfate and appropriate selection antibiotics. CHO cells were cultured in Ham's F-12 supplemented with 10% fetal bovine serum, 100 U/mL penicillin G sodium, 100 g/mL streptomycin sulfate and appropriate selection antibiotics.
For FLIPR TETRA™ assay, cells were plated in 384-well black wall, flat clear bottom microtiter plates (Type: BD Biocoat Poly-D-Lysine Multiwell Cell Culture Plate) at 20,000 to 30,000 cells per well (384-well plate). Cells were incubated at 37° C. overnight or until the cells reached a sufficient density in the wells (near confluent monolayer) to use in fluorescence assays. For α4β2 assay, cells were incubated at 27° C. for at least 7 hours before use.
Experiments were performed with either the FLIPR calcium sensitive dye kit (Fluo-8, ABDbioquest, for nAChR α3/β4 and nAChR α7) or FLIPR membrane potential kit (Molecular Devices, for nAChR α4/β2) according to the manufacturer's instructions. Briefly, cells were incubated with 201 dye for 30 min at 37° C. After dye loading period, for the agonist assay, 5 μl of the test, vehicle, or control articles at concentration of 5 times of final concentration were applied to the cells without stimulation. For the positive allosteric modulation (PAM) and antagonist assay, after test article application, the cells were stimulated with either low dose (for PAM) or high dose (for antagonist) of Ach.
Concentration-response data was fitted to a Hill equation of the following form:
where Base is the response at low concentrations of test article, Max is the maximum response at high concentrations, xhalf is the EC50 or IC50, the concentration of test article producing either half-maximal activation or inhibition, and rate is the Hill coefficient. Nonlinear least squares fits were made assuming a simple one-to-one binding model.
The ability of both test articles to act as an agonist of nAChR carried out in the absence of the positive control agonist. The signal elicited in the presence of the positive control agonist, 30 μM acetylcholine (Ach) was set to 100% and the signal from the vehicle control, HEPES-buffered physiological saline (HBPS) solution was set to 0%.

[7] = anatabine 0.1 mg/kg single i.v., Male
[8] = anatabine 0.75 mg/kg single i.v., Female
[9] = anatabine 0.75 mg/kg single i.v., Male
[10] = anatabine 0.1 mg/kg, male rats, individual animals
[11] = anatabine 0.75 mg/kg, female rats, individual animals
[12] = anatabine 0.75 mg/kg, male rats, individual animals

T2 sequence (P32297 32-505): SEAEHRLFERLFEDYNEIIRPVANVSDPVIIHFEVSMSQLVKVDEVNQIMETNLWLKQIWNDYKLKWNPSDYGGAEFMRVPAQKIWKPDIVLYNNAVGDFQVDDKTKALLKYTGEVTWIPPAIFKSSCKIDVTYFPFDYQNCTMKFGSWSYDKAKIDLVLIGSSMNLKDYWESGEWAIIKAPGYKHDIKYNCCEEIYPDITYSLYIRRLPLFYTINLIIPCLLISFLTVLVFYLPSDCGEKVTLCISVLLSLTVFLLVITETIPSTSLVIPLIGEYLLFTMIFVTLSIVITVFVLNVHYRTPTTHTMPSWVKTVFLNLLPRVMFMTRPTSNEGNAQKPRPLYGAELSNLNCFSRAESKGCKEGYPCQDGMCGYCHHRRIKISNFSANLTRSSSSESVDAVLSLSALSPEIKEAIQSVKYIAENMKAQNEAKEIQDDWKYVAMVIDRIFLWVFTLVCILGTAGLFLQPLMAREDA
T2 sequence (P30926 22-498): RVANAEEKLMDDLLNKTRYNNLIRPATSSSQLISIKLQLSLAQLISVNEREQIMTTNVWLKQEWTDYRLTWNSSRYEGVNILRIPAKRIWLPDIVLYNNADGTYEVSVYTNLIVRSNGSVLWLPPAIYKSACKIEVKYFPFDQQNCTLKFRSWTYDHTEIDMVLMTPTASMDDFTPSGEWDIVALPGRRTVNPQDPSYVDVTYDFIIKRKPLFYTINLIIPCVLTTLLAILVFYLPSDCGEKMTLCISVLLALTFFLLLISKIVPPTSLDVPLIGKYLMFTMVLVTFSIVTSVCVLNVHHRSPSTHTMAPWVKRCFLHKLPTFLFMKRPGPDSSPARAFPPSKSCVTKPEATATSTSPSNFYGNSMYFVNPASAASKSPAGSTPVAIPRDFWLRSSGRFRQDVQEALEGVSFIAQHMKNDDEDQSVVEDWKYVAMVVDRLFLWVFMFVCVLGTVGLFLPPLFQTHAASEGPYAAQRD
T1 sequence (P36544 23-502): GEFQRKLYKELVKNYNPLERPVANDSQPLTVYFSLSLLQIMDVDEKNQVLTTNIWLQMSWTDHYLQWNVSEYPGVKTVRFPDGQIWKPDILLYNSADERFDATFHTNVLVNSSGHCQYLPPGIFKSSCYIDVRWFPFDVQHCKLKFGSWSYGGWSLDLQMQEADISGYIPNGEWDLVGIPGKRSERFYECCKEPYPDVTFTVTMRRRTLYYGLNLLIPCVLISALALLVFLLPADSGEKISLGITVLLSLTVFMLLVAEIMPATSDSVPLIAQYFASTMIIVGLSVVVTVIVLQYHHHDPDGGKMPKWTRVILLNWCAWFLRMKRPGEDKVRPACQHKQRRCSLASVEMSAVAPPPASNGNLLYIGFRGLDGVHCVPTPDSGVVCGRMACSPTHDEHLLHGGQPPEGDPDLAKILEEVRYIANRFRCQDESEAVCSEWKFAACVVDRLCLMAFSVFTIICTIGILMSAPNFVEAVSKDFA

C1=CCC(c2cccnc2)NC1 (racemic) [Anatabine, 1,2,3,6-tetrahydro-[2,3′]bipyridinyl]
TNFα-induced NFκB-mediated transcription of luciferase [1]: can reduce this transcription to control levels
physical signs [2]: no obvious adverse signs were observed
day 1 B.W. ([3]; 0.1 mg/kg, F): 211.1 g and 201.0 g and 210.9 g
day 2 B.W. ([3]; 0.1 mg/kg, F): 223.9 g and 215.1 g and 208.1 g and 208.8 g and 212.8 g
day 3 B.W. ([3]; 0.1 mg/kg, F): 230.8 g and 213.2 g and 209.1 g (2×) and 219.3 g
day 4 B.W. ([3]; 0.1 mg/kg, F): 242.3 g and 222.4 g and 220.7 g and 211.4 g and 224.7 g
day 5 B.W. ([3]; 0.1 mg/kg, F): 246.9 g and 226.4 g and 219.3 g and 221.0 g and 229.5 g
day 6 B.W. ([3]; 0.1 mg/kg, F): 241.1 g and 235.5 g and 220.1 g and 218.8 g and 222.9 g
day 7 B.W. ([3]; 0.1 mg/kg, F): 246.5 g and 226.4 g and 221.7 g and 222.1 g and 232.1 g
day 8 B.W. ([3]; 0.1 mg/kg, F): 252.0 g and 232.0 g and 227.0 g and 235.0 g
day 9 B.W. ([3]; 0.1 mg/kg, F): 255.1 g and 239.9 g and 224.1 g and 232.0 g
day 11 B.W. ([3]; 0.1 mg/kg, F): 274.8 g and 238.5 g and 233.9 g and 245.6 g and 245.4 g
day 12 B.W. ([3]; 0.1 mg/kg, F): 277.2 g and 246.3 g and 242.0 g and 240.0 g and 241.6 g
day 13 B.W. ([3]; 0.1 mg/kg, F): 271.8 g and 241 g and 242.1 g
day 14 B.W. ([3]; 0.1 mg/kg, F): 272.7 g and 248.5 g and 243.9 g and 255.6 g and 239.2 g
day 1 B.W. ([3]; 0.1 mg/kg, M): 233.7 g and 235.0 g and 243.5 g and 239.9 g
day 2 B.W. ([3]; 0.1 mg/kg, M): 257.0 g and 235.1 g and 231.0 g and 253.5 g and 247.3 g
day 3 B.W. ([3]; 0.1 mg/kg, M): 270.0 g and 251.0 g and 252.0 g and 259.4 g
day 4 B.W. ([3]; 0.1 mg/kg, M): 286.0 g and 270.0 g and 271.2 g and 280.5 g and 273.7 g
day 5 B.W. ([3]; 0.1 mg/kg, M): 296.5 g and 273.8 g and 278.5 g and 288.3 g and 286.6 g
day 6 B.W. ([3]; 0.1 mg/kg, M): 301.8 g and 278 g and 284.3 g and 288.3 g and 219.6 g
day 7 B.W. ([3]; 0.1 mg/kg, M): 318.2 g and 293.8 g and 297.6 g and 301.2 g and 300.7 g
day 8 B.W. ([3]; 0.1 mg/kg, M): 327.0 g and 309.0 g and 310.0 g and 311.0 g
day 9 B.W. ([3]; 0.1 mg/kg, M): 336.8 g and 303.4 g and 310.0 g and 318.7 g and 317.4 g
day 10 B.W. ([3]; 0.1 mg/kg, M): 346.4 g and 312.9 g and 319.9 g and 322.3 g and 330.4 g
day 11 B.W. ([3]; 0.1 mg/kg, M): 365.7 g and 331.0 g and 343.8 g and 346.9 g and 348.8 g
day 12 B.W. ([3]; 0.1 mg/kg, M): 359.9 g and 320.0 g and 341.9 g and 347.3 g and 360.9 g
day 13 B.W. ([3]; 0.1 mg/kg, M): 367 g and 331 g and 349 g and 334.4 g and 360 g
day 14 B.W. ([3]; 0.1 mg/kg, M): 391.0 g and 347.3 g and 368.8 g and 353.5 g and 373.8 g
day 1 B.W. ([3]; 0.75 mg/kg, F): 208.9 g and 207.7 g and 219.1 g and 196.7 g and 199.5 g
day 2 B.W. ([3]; 0.75 mg/kg, F): 206.2 g and 210.0 g (2×) and 225.5 g and 210.1 g
day 3 B.W. ([3]; 0.75 mg/kg, F): 214.0 g (2×) and 224.8 g and 213.6 g and 210.8 g
day 6 B.W. ([3]; 0.75 mg/kg, F): 224.4 g and 217.8 g and 236.2 g and 214.7 g and 221.4 g
day 7 B.W. ([3]; 0.75 mg/kg, F): 227.4 g and 243.2 g and 222 g and 219.3 g
day 8 B.W. ([3]; 0.75 mg/kg, F): 232.0 g and 220.0 g and 243.0 g and 224.6 g and 227.4 g
day 9 B.W. ([3]; 0.75 mg/kg, F): 237.3 g and 226.3 g and 247.6 g and 229.1 g and 230.6 g
day 10 B.W. ([3]; 0.75 mg/kg, F): 239.3 g and 232.2 g and 252.7 g and 230.9 g and 233.5 g
day 11 B.W. ([3]; 0.75 mg/kg, F): 250.9 g and 239.1 g and 268.8 g and 240.9 g and 244.1 g
day 12 B.W. ([3]; 0.75 mg/kg, F): 249.7 g and 233.5 g and 259.6 g and 241.6 g and 247.9 g
day 13 B.W. ([3]; 0.75 mg/kg, F): 248 g and 237.2 g and 268 g and 234 g and 243 g
day 14 B.W. ([3]; 0.75 mg/kg, F): 251.5 g and 242.8 g and 274.1 g and 250.7 g and 250.6 g
day 4 B.W. ([3]; 0.75 mg/kg, F, second one headed day 4): 225.4 g and 219.3 g and 237.1 g and 220.8 g and 227.6 g
day 4 B.W. ([3]; 0.75 mg/kg, F, day 4): 230.0 g and 214.7 g and 232.4 g and 222.1 g and 220.0 g
day 1 B.W. ([3]; 0.75 mg/kg, M): 242.7 g and 251.4 g and 231.9 g and 226.8 g and 239.8 g
day 2 B.W. ([3]; 0.75 mg/kg, M): 259.7 g and 240.0 g and 232.1 g and 247.2 g
day 3 B.W. ([3]; 0.75 mg/kg, M): 261.1 g and 269.1 g and 252.0 g and 243.0 g and 256.1 g
day 6 B.W. ([3]; 0.75 mg/kg, M): 282.4 g and 287.6 g and 268.2 g (2×) and 281.3 g
day 7 B.W. ([3]; 0.75 mg/kg, M): 294.5 g and 302.9 g and 281.8 g and 274.1 g and 287.1 g
day 8 B.W. ([3]; 0.75 mg/kg, M): 300.0 g and 310.6 g and 293.4 g and 284.2 g
day 9 B.W. ([3]; 0.75 mg/kg, M): 307.6 g and 319.8 g and 298.8 g and 296.2 g and 298.5 g
day 10 B.W. ([3]; 0.75 mg/kg, M): 317.2 g and 331.9 g and 307.9 g and 303.8 g and 306.8 g
day 11 B.W. ([3]; 0.75 mg/kg, M): 334.6 g and 339.8 g and 329.4 g and 316.1 g and 321.9 g
day 12 B.W. ([3]; 0.75 mg/kg, M): 327.6 g and 325.4 g and 322.5 g and 324.8 g and 331.1 g
day 13 B.W. ([3]; 0.75 mg/kg, M): 335.6 g and 338 g and 330 g and 326 g (2×)
day 14 B.W. ([3]; 0.75 mg/kg, M): 351.9 g and 357.9 g and 345.1 g and 339 g and 335.9 g
day 4 B.W. ([3]; 0.75 mg/kg, M, second one headed day 4): 282.3 g and 287.6 g and 269.9 g and 262.0 g and 275.7 g
day 4 B.W. ([3]; 0.75 mg/kg, M, day 4): 275.7 g and 286.0 g and 268.0 g and 256.3 g and 271.2 g
Mean weigth increase by day 14 ([3]; anatabine 0.1 mg/kg single i.v., Female): 39.0 g
Mean food consumption/day [3, 7]: 31.0 g
Mean weigth increase by day 14 [3, 7]: 132.5 g
Mean food consumption/day [3, 8]: 19.7 g
Mean weigth increase by day 14 [3, 8]: 43.1 g
Mean food consumption/day [3, 9]: 27.8 g
Mean weigth increase by day 14 [3, 9]: 111.6 g
ACTIVE PARTIAL THROMBOPLASTIN TIME ([4]; anatabine 0.1 mg/kg, female rats, individual animals): 31.1 s and 34.2 s and 26 s and 28.9 s
ACTIVE PARTIAL THROMBOPLASTIN TIME [4, 10]: 36.4 s and 28.9 s and 32 s
PROTHROMBIN TIME [4, 10]: 13.4 s and 12.5 s
ACTIVE PARTIAL THROMBOPLASTIN TIME [4, 11]: 32.5 s and 32.7 s and 38.2 s
PROTHROMBIN TIME [4, 11]: 23.8 s
ACTIVE PARTIAL THROMBOPLASTIN TIME [4, 12]: 39.7 s and 43.9 s and 50.4 s
PROTHROMBIN TIME [4, 12]: 17.9 s
ACTIVATED PARTIAL THROMBOPLASTIN TIME ([4]; female, 0.1 mg/kg, group mean): 29.4 s
ACTIVATED PARTIAL THROMBOPLASTIN TIME ([4]; female, 0.75 mg/kg, group mean): 33.3 s
PROTHROMBIN TIME ([4]; female, 0.75 mg/kg, group mean): 14.1 s
PROTHROMBIN TIME ([4]; male, 0.1 mg/kg, group mean): 12.8 s
ACTIVATED PARTIAL THROMBOPLASTIN TIME ([4]; male, 0.75 mg/kg, group mean): 38.7 s
PROTHROMBIN TIME ([4]; male, 0.75 mg/kg, group mean): 13.3 s
agonist activity (nAChR α7): showed agonist activity
potentiation (nAChR α3/β4 [5]): Neither nicotine nor anatabine potentiated the activity
agonist activity (nAChR α3/β4 [6]): showed agonist activity
